From patent publication EP0420552A2, “New antifungal antibiotic, and the production and uses of same” (ZAIDAN HOJIN BISEIBUTSU KAGAKU KENKYU KAI, priority 1989, dated 1991)
Values after ≈ are worked out from the molar mass of the structure shown.

What was measured:
[1] = system: Cochliobolus miyabeanus; experiment: MIC by standard serial dilution method on nutrient agar; assay type: cell-based; conditions: Bipolaris oryzae, 42 h, pH 7, read-out: Minimum inhibitory concentrations
[2] = system: Candida albicans 3147; experiment: as above; assay type: cell-based; conditions: nutrient agar medium containing 1% glucose (pH 7.0), 27°C, 42 hours, read-out: Minimum inhibitory concentrations
Description: (§1) The minimum inhibitory concentrations (MIC., mcg/ml) of dexylosylbenanomicin A against a variety of fungi were determined by a standard serial dilution method on a nutrient agar medium containing 1% glucose (pH 7.0) after incubation at 27°C for 42 hours and are shown in Table 1 below.

[3] = system: Trichophyton mentagrophytes (883); experiment: as above; assay type: cell-based; conditions: nutrient agar medium containing 1% glucose (pH 7.0), 27°C, 42 hours, read-out: Minimum inhibitory concentrations
Description: as §1

[4] = system: Candida krusei F-5; experiment: as above; assay type: cell-based; conditions: Pichia kudriavzevii, F5, nutrient agar medium containing 1% glucose (pH 7.0), 27°C, 42 hours, read-out: Minimum inhibitory concentrations
Description: as §1

[5] = system: Candida Yu-1200; experiment: as above; assay type: cell-based; conditions: YU1200, nutrient agar medium containing 1% glucose (pH 7.0), 27°C, 42 hours, read-out: Minimum inhibitory concentrations
Description: as §1

[6] = system: Aspergillus niger F-16; experiment: as above; assay type: cell-based; conditions: F16, nutrient agar medium containing 1% glucose (pH 7.0), 27°C, 42 hours, read-out: Minimum inhibitory concentrations
Description: as §1

[7] = system: Saccharomyces cerivisiae F-7; experiment: as above; assay type: cell-based; conditions: F7, nutrient agar medium containing 1% glucose (pH 7.0), 27°C, 42 hours, read-out: Minimum inhibitory concentrations
Description: as §1

[8] = system: Cryptococcus neoformans F-10; experiment: as above; assay type: cell-based; conditions: F10, nutrient agar medium containing 1% glucose (pH 7.0), 27°C, 42 hours, read-out: Minimum inhibitory concentrations
Description: as §1

[9] = system: Pellicularia sasakii; experiment: as above; assay type: cell-based; conditions: nutrient agar medium containing 1% glucose (pH 7.0), 27°C, 42 hours, read-out: Minimum inhibitory concentrations
Description: as §1

[10] = system: Candida tropicalis F-1; experiment: as above; assay type: cell-based; conditions: F1, nutrient agar medium containing 1% glucose (pH 7.0), 27°C, 42 hours, read-out: Minimum inhibitory concentrations
Description: as §1

[11] = system: Trichophyton asteroides 429; experiment: as above; assay type: cell-based; conditions: nutrient agar medium containing 1% glucose (pH 7.0), 27°C, 42 hours, read-out: Minimum inhibitory concentrations
Description: as §1

[12] = system: Candida pseudotropicalis F-2; experiment: as above; assay type: cell-based; conditions: Kluyveromyces marxianus, F2, nutrient agar medium containing 1% glucose (pH 7.0), 27°C, 42 hours, read-out: Minimum inhibitory concentrations
Description: as §1

[13] = Acute toxicity in mice upon intravenous administration; assay type: in vivo; conditions: ICR mice (female, 4-week old, body weight of 19 to 21 g)
Description: Dexylosylbenanomicin A is of low toxicity to mammals, as it was shown that for estimation of acute toxicity in mice upon intravenous administration, dexylosylbenanomicin A was administered via the intravenous route to ICR mice (female, 4-week old, body weight of 19 to 21 g), the mice tolerated a dosage of 300 mg/kg of this new antibiotic.

[14] = system: Pyricularia oryzae; experiment: microbe, parasite or virus in culture; assay type: cell-based; conditions: 42 h, pH 7, read-out: Minimum inhibitory concentrations
[15] = system: Xanthomonas citri; experiment: MIC by standard serial dilution method on nutrient agar; assay type: cell-based; conditions: 42 h, pH 7, read-out: Minimum inhibitory concentrations
[16] = Solubility in organic solvents
[17] = system: Xanthomonas oryzae; experiment: microbe, parasite or virus in culture; assay type: cell-based; conditions: 42 h, pH 7, read-out: Minimum inhibitory concentrations

## COc1cc(O)c2c(c1)C(=O)c1c(cc3c(c1O)-c1c(cc(C)c(C(=O)N[C@H](C)C(=O)O)c1O)[C@H](O[C@@H]1O[C@H](C)[C@H](O)[C@H](O)[C@H]1O)[C@H]3O)C2=O [dexylosylbenanomicin A]
[1]
  MIC: > 25 µg/mL
[2]
  MIC: 12.5 µg/mL (≈ 18 µM)
[3]
  MIC: > 25 µg/mL
[4]
  MIC: 50 µg/mL (≈ 71.9 µM)
[5]
  MIC: 6.25 µg/mL (≈ 8.98 µM)
[6]
  MIC: 50 µg/mL (≈ 71.9 µM)
[7]
  MIC: 3.13 µg/mL (≈ 4.5 µM)
[8]
  MIC: 12.5 µg/mL (≈ 18 µM)
[9]
  MIC: 25 µg/mL (≈ 35.9 µM)
[10]
  MIC: 12.5 µg/mL (≈ 18 µM)
[11]
  MIC: > 25 µg/mL
[12]
  MIC: 3.13 µg/mL (≈ 4.5 µM)
[13]
  acute toxicity: tolerated dosage: 300 mg/kg
[14]
  MIC: 50 µg/mL (≈ 71.9 µM)
[15]
  MIC: > 100 µg/mL
[16]; in chloroform, ethyl acetate, acetone and methanol
  Solubility: Sparingly soluble
[16]; in dimethyl sulfoxide and N,N-dimethylformamide
  Solubility: soluble
[17]
  MIC: 100 µg/mL (≈ 144 µM)
